Test results published in patent publication US11214803B2, “Modulators of YAP1 expression” (Ionis Pharmaceuticals, Inc., priority 2019, dated 2022).
Strand notation (5' to 3'): a small letter for the sugar, then the base; units joined by * are phosphorothioate-linked, units joined directly phosphodiester-linked; [ ] holds rarer units or linkages, { } end groups; capitals alone tell only the bases. k = constrained ethyl (cEt); [5mC] = 5-methylcytosine; d = 2'-deoxy (DNA)

What was measured:
Yap1 mRNA = experiment: Dose-dependent inhibition of human Yap1 in A-431 cells (Example 7, 10,000 cells per well, RTS36584); type: cell-based; details: free uptake; for Yap1 mRNA, % UTC: A-431 cells 10,000 cells per well, 48 hours
How it was run: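 A-431 cells at 10,000 per well received modified oligonucleotides by free uptake at several doses. After about 48 hours, Yap1 mRNA was quantified with primer-probe set RTS36584, normalized to RIBOGREEN total RNA and expressed as % untreated control. IC50 came from linear regression on a log/linear plot.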

[1] = Tolerability in Balb/c mice, plasma chemistry markers (Example 14); type: in vivo; details: male Balb/c mice, 50 mg/kg s.c. twice a week for four weeks (8 treatments), day 27
Protocol: (§1) Balb/c mice were treated with modified oligonucleotides selected from studies described above and evaluated for changes in the levels of various plasma chemistry markers.
(§2) Groups of male Balb/c mice at 5-6 weeks of age (obtained from Taconic) were injected subcutaneously twice a week for four weeks (for a total of 8 treatments) with 50 mg/kg of modified oligonucleotides. One group of male Balb/c mice was injected with PBS. Mice were euthanized on day 27 post start of treatment (24 hours following the final administration).

[2] = Tolerability in Balb/c mice, body and organ weights (Example 14); type: in vivo; details: male Balb/c mice, 50 mg/kg s.c. twice a week for four weeks (8 treatments); for Kidney weight / Liver weight / Spleen weight: end of study (day 27); for body weight: measured on day 25
Protocol: Groups of male Balb/c mice at 5-6 weeks of age (obtained from Taconic) were injected subcutaneously twice a week for four weeks (for a total of 8 treatments) with 50 mg/kg of modified oligonucleotides. One group of male Balb/c mice was injected with PBS. […]
Modified oligonucleotides that caused any changes in organ weights outside the expected range for modified oligonucleotides were excluded from further studies.

[3] = test system: subcutaneous DEN carcinomas; experiment: Tumor volume in DEN-HCC model, in combination with a-PD1 antibody (Example 49); type: in vivo, C57BL/6 mice; details: DEN-HCC subcutaneous model, C57BL/6 mice
Protocol: N-nitrosodiethylamine (DEN) is administered at 25 mg/kg into 15 day old C57/BL6 mice. Carcinomas form 6 months post injection. After formation, carcinomas were then dissected from the liver and passaged subcutaneously into C57BL/6 male mice at 4-6 weeks of age to establish a subcutaneous model. For this experiment, mice were passaged with P8 subcutaneously established DEN carcinomas, rendering P9 for the duration of the experiment. Subcutaneous carcinomas are found to form at 4-6 weeks post implantation. Modified oligonucleotides 792169 (control compound) and 715491 (YAP-1 targeting modified oligonucleotide) were treated subcutaneously into groups of 7-8 mice at 10 mg/kg/week 5 times a week for 11 weeks (total of 55 doses). The PBS-only treated group and the control group were treated 5 times a week for 4 weeks (total of 20 doses). α-PD1 antibody (BioXCell) was treated intraperitoneally at 10 mg/kg/week twice a week for 4 weeks (total of 8 doses). F.D. refers to mice that were sacrificed because their tumor volume became too large.

[4] = Tolerability in Balb/c mice, plasma chemistry markers (Example 10); type: in vivo; details: male Balb/c mice, 50 mg/kg subcutaneously twice a week for four weeks, day 26
Protocol: as §1
as §2, with “4-6” for “5-6”, “26” for “27”

[5] = Tolerability in Balb/c mice, body and organ weights (Example 10); type: in vivo; details: 50 mg/kg subcutaneously twice a week for four weeks, end of study
Protocol: as §2, with “4-6” for “5-6”, “26” for “27”
Body weights of Balb/c mice were measured at the end of the study, and the average body weight for each group is presented in the table below. Modified oligonucleotides that caused any changes in organ weights outside the expected range for modified oligonucleotides were excluded from further studies.

[6] = Table 61, A-431 cells 10,000 cells per well
[7] = Table 56, A-431 cells 10,000 cells per well
[8] = Table 58, A-431 cells 10,000 cells per well

Question: Which results are given for “958739 (kA*kG*k[5mC]*dA*dA*dT*dA*dG*dA*dG*dT*dA*dA*k[5mC]*k[5mC]*kA; antisense) [compound 958739]”?
Answer: Yap1 mRNA, % UTC (Yap1 mRNA; Table 61, 15.6 nM): 77 % UTC; Yap1 mRNA, % UTC (Yap1 mRNA; Table 61, 62.5 nM): 46 % UTC; Yap1 mRNA, % UTC (Yap1 mRNA; Table 61, 4000.00 nM): 7 % UTC; IC50 (Yap1 mRNA; [6]): 0.1 µM; ALT [1]: 145 U/L; AST [1]: 186 U/L; BUN [1]: 21 mg/dL; TBIL [1]: 0.21 mg/dL; Kidney weight [2]: 0.36 g; Liver weight [2]: 1.58 g; Spleen weight [2]: 0.13 g; body weight [2]: 24 g

Question: Which “Yap1 mRNA, % UTC” value (Yap1 mRNA; Table 56, 15.6 nM) does the source give for “958596 (kA*kG*k[5mC]*dA*dG*dT*dT*dA*dA*dG*d[5mC]*dA*d[5mC]*kT*kT*kT; antisense) [compound 958596]” here?
Answer: 69 % UTC

Question: And the “Yap1 mRNA, % UTC” value (Yap1 mRNA; Table 56, 62.5 nM)?
Answer: 38 % UTC

Question: What about the “Yap1 mRNA, % UTC” value (Yap1 mRNA; Table 56, 4000.00 nM) of the same substance?
Answer: 7 % UTC

Question: What about the IC50 (Yap1 mRNA; [7]) of the same substance?
Answer: 0.04 µM

Question: And the ALT [1]?
Answer: 207 U/L

Question: And the AST [1]?
Answer: 162 U/L

Question: And the BUN [1]?
Answer: 24 mg/dL

Question: What about the TBIL [1] of the same substance?
Answer: 0.23 mg/dL

Question: And the Kidney weight [2]?
Answer: 0.36 g

Question: And the Liver weight [2]?
Answer: 2.11 g

Question: And the Spleen weight [2]?
Answer: 0.13 g

Question: What about the body weight [2] of the same substance?
Answer: 25 g

Question: What does the source list for “958622 (kG*kA*kT*dA*dT*dT*d[5mC]*d[5mC]*dG*d[5mC]*dA*dT*dT*kG*k[5mC]*k[5mC]; antisense) [compound 958622]”?
Answer: Yap1 mRNA, % UTC (Yap1 mRNA; Table 58, 15.6 nM): 79 % UTC; Yap1 mRNA, % UTC (Yap1 mRNA; Table 58, 62.5 nM): 50 % UTC; Yap1 mRNA, % UTC (Yap1 mRNA; Table 58, 4000.00 nM): 7 % UTC; IC50 (Yap1 mRNA; [8]): 0.1 µM; ALT [1]: 224 U/L; AST [1]: 254 U/L; BUN [1]: 23 mg/dL; TBIL [1]: 0.24 mg/dL; Kidney weight [2]: 0.33 g; Liver weight [2]: 0.92 g; Spleen weight [2]: 0.12 g; body weight [2]: 23 g

Question: For “958534 (kT*kT*k[5mC]*dA*dG*d[5mC]*dA*dT*dA*dG*dA*dA*dG*kT*kA*kG; antisense) [compound 958534]”, which “Yap1 mRNA, % UTC” value (Yap1 mRNA; Table 61, 15.6 nM) is on record?
Answer: 85 % UTC

Question: And the “Yap1 mRNA, % UTC” value (Yap1 mRNA; Table 61, 62.5 nM)?
Answer: 48 % UTC

Question: What about the “Yap1 mRNA, % UTC” value (Yap1 mRNA; Table 61, 4000.00 nM) of the same substance?
Answer: 9 % UTC

Question: And the IC50 (Yap1 mRNA; [6])?
Answer: 0.1 µM

Question: What about the ALT [1] of the same substance?
Answer: 1962 U/L

Question: And the AST [1]?
Answer: 1617 U/L

Question: And the BUN [1]?
Answer: 26 mg/dL

Question: What about the TBIL [1] of the same substance?
Answer: 0.33 mg/dL

Question: And the Kidney weight [2]?
Answer: 0.32 g

Question: What about the Liver weight [2] of the same substance?
Answer: 1.81 g

Question: What about the Spleen weight [2] of the same substance?
Answer: 0.09 g

Question: What about the body weight [2] of the same substance?
Answer: 22 g

Question: With “715491 (kA*kA*k[5mC]*d[5mC]*dA*dA*d[5mC]*dT*dA*dT*dT*dA*d[5mC]*kT*kT*k[5mC]) [compound 715491]” as the substance, how does the “Yap1 mRNA, % UTC” value (Yap1 mRNA; Table 56, 15.6 nM) read?
Answer: 92 % UTC

Question: What about the “Yap1 mRNA, % UTC” value (Yap1 mRNA; Table 56, 62.5 nM) of the same substance?
Answer: 83 % UTC

Question: And the “Yap1 mRNA, % UTC” value (Yap1 mRNA; Table 56, 4000.00 nM)?
Answer: 28 % UTC

Question: And the IC50 (Yap1 mRNA; [7])?
Answer: 0.27 µM

Question: What about the “Average Tumor Volume” value ([3]; day 1 on treatment) of the same substance?
Answer: 356 mm3

Question: What about the “Average Tumor Volume” value ([3]; day 5 on treatment) of the same substance?
Answer: 417 mm3

Question: What about the “Average Tumor Volume” value ([3]; day 8 on treatment) of the same substance?
Answer: 463 mm3

Question: And the “Average Tumor Volume” value ([3]; day 11 on treatment)?
Answer: 461 mm3

Question: What about the “Average Tumor Volume” value ([3]; day 15 on treatment) of the same substance?
Answer: 523 mm3

Question: What about the “Average Tumor Volume” value ([3]; day 18 on treatment) of the same substance?
Answer: 526 mm3

Question: What about the “Average Tumor Volume” value ([3]; day 23 on treatment) of the same substance?
Answer: 658 mm3

Question: And the “Average Tumor Volume” value ([3]; day 25 on treatment)?
Answer: 659 mm3

Question: And the “Average Tumor Volume” value ([3]; day 28 on treatment)?
Answer: 661 mm3

Question: What about the “Average Tumor Volume” value ([3]; day 31 on treatment) of the same substance?
Answer: 740 mm3

Question: What about the “Average Tumor Volume” value ([3]; day 35 on treatment) of the same substance?
Answer: 798 mm3

Question: What about the “Average Tumor Volume” value ([3]; day 38 on treatment) of the same substance?
Answer: 741 mm3

Question: And the “Average Tumor Volume” value ([3]; day 43 on treatment)?
Answer: 723 mm3

Question: What about the “Average Tumor Volume” value ([3]; day 45 on treatment) of the same substance?
Answer: 741 mm3

Question: And the “Average Tumor Volume” value ([3]; day 49 on treatment)?
Answer: 765 mm3

Question: What about the “Average Tumor Volume” value ([3]; day 54 on treatment) of the same substance?
Answer: 780 mm3

Question: And the “Average Tumor Volume” value ([3]; day 58 on treatment)?
Answer: 852 mm3

Question: What about the “Average Tumor Volume” value ([3]; day 61 on treatment) of the same substance?
Answer: 925 mm3

Question: What about the “Average Tumor Volume” value ([3]; day 65 on treatment) of the same substance?
Answer: 896 mm3

Question: And the “Average Tumor Volume” value ([3]; day 68 on treatment)?
Answer: 940 mm3

Question: And the “Average Tumor Volume” value ([3]; day 72 on treatment)?
Answer: 953 mm3

Question: And the “Average Tumor Volume” value ([3]; day 75 on treatment)?
Answer: 985 mm3

Question: What about the “Average Tumor Volume” value ([3]; day 79 on treatment) of the same substance?
Answer: 960 mm3

Question: What about the “ALT (U/L)” value [4] of the same substance?
Answer: 33 U/L

Question: And the “AST (U/L)” value [4]?
Answer: 48 U/L

Question: What about the “TBIL” value [4] of the same substance?
Answer: 0.11 mg/dL

Question: And the Kidney weight [5]?
Answer: 0.32 g

Question: And the Liver weight [5]?
Answer: 1.03 g

Question: What about the Spleen weight [5] of the same substance?
Answer: 0.12 g

Question: What about the body weight [5] of the same substance?
Answer: 22 g

Question: With “958589 (kG*kT*kA*dA*dA*dG*dG*dA*dA*dG*dA*dT*d[5mC]*kT*k[5mC]*k[5mC]; antisense) [compound 958589]” as the substance, how does the “Yap1 mRNA, % UTC” value (Yap1 mRNA; Table 61, 15.6 nM) read?
Answer: 75 % UTC

Question: And the “Yap1 mRNA, % UTC” value (Yap1 mRNA; Table 61, 62.5 nM)?
Answer: 50 % UTC

Question: What about the “Yap1 mRNA, % UTC” value (Yap1 mRNA; Table 61, 4000.00 nM) of the same substance?
Answer: 8 % UTC

Question: And the IC50 (Yap1 mRNA; [6])?
Answer: 0.1 µM

Question: What about the ALT [1] of the same substance?
Answer: 35 U/L

Question: What about the AST [1] of the same substance?
Answer: 66 U/L

Question: And the BUN [1]?
Answer: 24 mg/dL

Question: And the TBIL [1]?
Answer: 0.21 mg/dL

Question: What about the Kidney weight [2] of the same substance?
Answer: 0.37 g

Question: And the Liver weight [2]?
Answer: 1.40 g

Question: And the Spleen weight [2]?
Answer: 0.10 g

Question: What about the body weight [2] of the same substance?
Answer: 25 g

Question: Which results are given for “958497 (kA*kT*kA*dT*dG*dG*dA*dA*dA*dT*dT*dG*dT*k[5mC]*kT*k[5mC]) [compound 958497]”?
Answer: Yap1 mRNA, % UTC (Yap1 mRNA; Table 58, 15.6 nM): 82 % UTC; Yap1 mRNA, % UTC (Yap1 mRNA; Table 58, 62.5 nM): 35 % UTC; Yap1 mRNA, % UTC (Yap1 mRNA; Table 58, 4000.00 nM): 3 % UTC; IC50 (Yap1 mRNA; [8]): 0.1 µM; ALT [1]: 46 U/L; AST [1]: 151 U/L; BUN [1]: 26 mg/dL; TBIL [1]: 0.24 mg/dL; Kidney weight [2]: 0.35 g; Liver weight [2]: 1.31 g; Spleen weight [2]: 0.11 g; body weight [2]: 23 g
